Experimental data from patent US7420033B2, “Composition of lactoferrin related peptides and uses thereof” (Agennix, Inc., priority 2004, dated 2008).
Values joined by “and” are separate entries in the source; they are usually repeats but may differ in a detail not shown here. Equal values may be shown once. Where no end group is shown, it is not given here.

Experiments:
[1] = system: clinical bacterial isolates; test: Peptide MICs by NCCLS broth microdilution; type: cell-based; details: geometric mean MIC; 742 clinical bacterial isolates representing 35 species
Description: The novel peptides described in this application have shown substantial anti-microbial activity. Peptide MICs were determined by the broth microdilution method recommended by the NCCLS (M7-A5). In each medium, the concentrations of peptide were serial two-fold dilutions ranging from 8192 to 8 μg/mL. Mueller-Hinton broth and Peptone broth were used throughout, using the following media: 1) 5rCAMHB, 2) CAMHB supplemented with 3% lysed horse blood, 3) Haemophilus test medium, 4) peptone broth at pH 7, 5) peptone broth at pH 7.5, 6) peptone broth supplemented with 25 μg/mL calcium and 12.5 μg/mL magnesium, 7) peptone broth supplemented with 1.5 g/L soluble starch. On each day of testing, colony counts were performed on the broth from the growth control well immediately after inoculation from two randomly selected isolates to assure appropriate inoculum density. A total of 742 clinical bacterial isolates representing 35 species were tested.

Ascaris suum antigen = test: Sheep model of allergic asthma; type: in vivo; details: lung resistance and carbachol response, FIG. 5, FIG. 6
Description: Peptides LPF-32 and LPF-35 were both tested in an established sheep model of allergic asthma. […] Allergic sheep previously characterized as dual responders (displaying early and late phases of bronchoconstriction), were administered peptide followed by inhalation challenge with Ascaris suum antigen.
Baseline dose response curves to aerosolized carbachol were obtained in all sheep 1-3 days before the start of dosing. Sheep were dosed with peptide or placebo by nebulization or oral gavage in the inhaled and oral experiments respectively. The sensitized sheep were then challenged with Ascaris suum antigen to produce early and late airway responses, as measured by mean lung resistance (pulmonary flow resistance, RL). Mean lung resistance was measured using tracheal and pleural pressure catheters connected to a differential pressure transducer. […]
To assess airway responsiveness, cumulative dose response curves to carbachol were obtained, as measured by specific lung resistance, or SRL (SRL=RL * thoracic gas volume). […] Airway hypersensitivity (AH) was determined by calculating the cumulative carbachol dose that increased SRL by 400% over the post-saline value by interpolation from the dose response curve. […]

MIP3-α = MIP3-α expression in hepatocytes, ELISA; type: cell-based, human; details: 0.04 and 0.2 mg/mL, supernatant at 2 h and 4 h; FIG. 9
Text: Still further, it is envisioned that lactoferrin related peptides stimulate production of MIP-3alpha from hepatocytes. Lactoferrin is known to contribute to the defense systems of the body through its anti-microbial properties. […] The innate immune system is the ‘first line of defense’ of the body against hostile environments and comprise of a variety of effector and cellular mechanisms. This innate immune response is initially likely mediated by the ‘detection system’ of receptors known to be present on the surface of the gut epithelial cells, such as pattern recognition receptors, IL-1 receptor and general ‘scavenger’ receptors. These receptors recognize and respond to specific structural features of the presented molecules. As a result, various intracellular signaling pathways may be initiated (e.g., NFκB, Wnt, etc.) that result in the overall orchestration of the cellular response of the body to the prevailing biological situation (e.g., infection). RhLF and peptides derived from rhLF elicit a similar response of human hepatocytes in vitro in terms of producing an important chemokine—namely MIP-3-alpha. It is surmised that some general structural features that are responsible for the biological response to rhLF are retained in peptides that are structurally related to the parent molecule (rhLF).
MIP3-α has been associated with the stimulation of innate immune responses. […]

hind paw edema = test: Carrageenan mouse paw edema model of inflammation; type: in vivo, ICR derived mice; details: PO once daily × 5
Description: Test substance LPF-35 at 5 mg/kg and reference agent Aspirin at 100 mg/kg were administered orally once daily for 5 consecutive days to groups of 8 ICR (4 male and 4 female) derived mice weighing 22±2 gms. One hour after 5th dose, right hind paw was injected with carrageenan (0.05 ml of 1% suspension intraplantar). The hind paw edema was measured 4 hours later. Convention: reduction of hind paw edema by 30 percent or more indicates significant acute anti-inflammatory activity. Each animal was fasted overnight before Carrageenan challenge.

heart allograft = test: Heart allograft survival model in rats; type: in vivo, rats (Wistar Furh recipients, Baffalo donors); details: FK506 alone, 0.8 mg/kg oral gavage once daily days 0 to +14; n=10
Description: The activity of LPF-35 in combination with FK506 was compared with FK506 alone in a heart allograft survival model in rats. Wistar Furh (WF; RT1) recipients of heart allograft from Baffalo donors (BUF; RT1b) were administered oral LPF-35 (5 mg/kg) plus FK506 (0.8 mg/kg), FK506 alone or placebo. The results are presented as a mean±standard deviation (MST±SD). Significance between groups was calculated using Student T-test with p<0.05 considered as significant. In group # 1 control WF recipients of BUF heart allografts (n=5) were untreated and heart allografts were rejected in an acute fashion within 6.4±0.5 days. In group # 2 WF recipients of BUF heart allografts (n=10) were treated daily once (days 0 to +14) with 0.8 mg/kg FK506 delivered by oral gavage. This protocol was effective in prolonging the survival of heart allografts to a MST of 22.3±6.7 days (p=0.0002). […] In group # 3 WF recipients of BUF heart allografts (n=6) were treated daily once (days 0 to +14) with 0.8 mg/kg FK506 delivered by oral gavage in combination with LPF-35 daily for 14 days. This protocol was effective in prolonging the survival of heart allografts to a MST of 49.5±28 days (p=0.0077). […] An effect of reducing organ transplant rejection is indicative of beneficial effects in GVHD.

| Compound | MIC GeoMean [1] | also measured |
| --- | --- | --- |
| RRRRRRSVQWAAVSQPIATEAFQWQRNMRKRRR [LPF-25] | 66 µg/mL |  |
| RRRRRRSVQWQAVSQPIATEQFQWQRNMRKRRR [LPF-24] | 43 µg/mL and 51 µg/mL |  |
| RRRRRRSVQWQAVSQPEATKQFQWQRNMRKRRR [LPF-31] | 41 µg/mL |  |
| RRRRRRSVQWQAVSQPGATKQFQWQRNMRKRRR [LPF-32] | 25 µg/mL | late phase inflammation and airway hyperresponsiveness (Ascaris suum antigen): substantially inhibit |
| RRRRRRSVQWQAVSQPIATIQFQWQRNMRKRRR [LPF-35] | 15 µg/mL | expression of MIP3-α in Hepatocytes (MIP3-α): stimulates |
| CC(=O)Oc1ccccc1C(=O)O [Aspirin] |  | Paw Volume LP (hind paw edema; LP, average n=8): 12.38 ×0.01 ml; Paw Volume Diff. (hind paw edema; RP minus LP): 5.00 ×0.01 ml; % Inhibition (hind paw edema; hind paw edema vs vehicle): 32%; Paw Volume RP (hind paw edema; right hind paw injected with carrageenan, 4 hours later, average n=8): 17.38 ×0.01 ml |
| RRRRRRSVQWQAVSQPIATKQFQWQRNMRKRRR [LPF-33] | 28 µg/mL |  |
| RRRRRRSVQWQAVSQPQATGQFQWQRNMRKRRR [LPF-34] | 32 µg/mL |  |
| RRRRRRSVQWAAVSQPIATKAFQWQRNMRKRRR [LPF-36] | 24 µg/mL |  |
| C=CC[C@@H]1/C=C(\C)C[C@H](C)C[C@H](OC)[C@H]2O[C@@](O)(C(=O)C(=O)N3CCCC[C@H]3C(=O)O[C@H](/C(C)=C/[C@@H]3CC[C@@H](O)[C@H](OC)C3)[C@H](C)[C@@H](O)CC1=O)[C@H](C)C[C@@H]2OC [FK506] |  | survival of heart allografts, MST ± SD (heart allograft): 22.3±6.7 days |
